From ChEMBL document CHEMBL3822432, “Antibacterial and anticancer activity of a series of novel peptides incorporating cyclic tetra-substituted C(α) amino acids” (Bioorg Med Chem, 2016)
Values after ≈ are worked out from the molar mass of the structure shown. Non-standard residues stand in square brackets, D forms with d. Residues, ends and D or L forms follow the SMILES beside them. ξ: configuration not given here. Ac6c = NC1(C(=O)O)CCCCC1; ξDap = NCC(N)C(=O)O

Key:
CFPAC-1 = assay: Antiproliferative activity against human CFPAC-1 cells after 72 hrs by Celltiter-Glo luminescent cell viability assay; type: functional, cell-based; settings: CFPAC-1, 72 h
A549 = assay: Antiproliferative activity against human A549 cells after 72 hrs by Celltiter-Glo luminescent cell viability assay; type: functional, cell-based; settings: A549, 72 h
[1] = Antibacterial activity against Salmonella enterica LT2 Typhimurium ATCC 15277 by two fold serial dilution method; type: functional
Pseudomonas aeruginosa = assay: Antibacterial activity against Pseudomonas aeruginosa Boston 41501 ATCC 27853 by two fold serial dilution method; type: functional
Klebsiella aerogenes = assay: Antibacterial activity against carbapenem-resistant Enterobacter aerogenes NCDC819-56 ATCC 13048 by two fold serial dilution method; type: functional
[2] = Antiproliferative activity against human PC3 cells after 72 hrs by Celltiter-Glo luminescent cell viability assay; type: functional, cell-based; settings: PC-3, 72 h
A498 = assay: Antiproliferative activity against human A498 cells after 72 hrs by Celltiter-Glo luminescent cell viability assay; type: functional, cell-based; settings: A498, 72 h
Streptococcus pneumoniae = assay: Antibacterial activity against Streptococcus pneumoniae 262 ATCC 49619 by two fold serial dilution method; type: functional
[3] = Antibacterial activity against Clostridium difficile VIP 10463 ATCC 43255 by two fold serial dilution method; type: functional, Clostridium difficile ATCC 43255; settings: Clostridioides difficile
[4] = Antiproliferative activity against human IGROV1 cells after 72 hrs by Celltiter-Glo luminescent cell viability assay; type: functional, cell-based; settings: IGROV-1, 72 h
[5] = Antiproliferative activity against human DLD1 cells after 72 hrs by Celltiter-Glo luminescent cell viability assay; type: functional, cell-based; settings: DLD-1, 72 h
[6] = Antibacterial activity against Yersinia pestis CO92 NR641 by two fold serial dilution method; type: functional
Staphylococcus aureus [7] = assay: Antibacterial activity against methicillin-resistant Staphylococcus aureus USA 300 NRS 384 by two fold serial dilution method; type: functional
[8] = tested on: Mycobacterium tuberculosis; assay: Antibacterial activity against Mycobacterium tuberculosis H37Ra ATCC 2517 by two fold serial dilution method; type: functional
[9] = tested on: Burkholderia pseudomallei; assay: Antibacterial activity against Burkholderia pseudomallei AHS 1 NCTC 8016 by two fold serial dilution method; type: functional
[10] = Antiproliferative activity against human MIAPaCa2 cells after 72 hrs by Celltiter-Glo luminescent cell viability assay; type: functional, cell-based; settings: MIA PaCa-2, 72 h
Staphylococcus aureus [11] = assay: Antibacterial activity against Staphylococcus aureus Seattle 1945 ATCC 25923 by two fold serial dilution method; type: functional
NCI-H69 = assay: Antiproliferative activity against human NCI-H69 cells after 72 hrs by Celltiter-Glo luminescent cell viability assay; type: functional, cell-based; settings: NCI-H69, 72 h
Acinetobacter baumannii = assay: Antibacterial activity against Acinetobacter baumannii B5W71 ATCC 15149 by two fold serial dilution method; type: functional
Neisseria gonorrhoeae = assay: Antibacterial activity against Neisseria gonorrhoeae F-18 ATCC 49226 by two fold serial dilution method; type: functional
[12] = Antibacterial activity against Bacillus anthracis Ames NR-3838 by two fold serial dilution method; type: functional, Bacillus anthracis str. Ames
[13] = Antibacterial activity against Francisella tularensis SCHU S4 NR-643 by two fold serial dilution method; type: functional
[14] = Antiproliferative activity against human UACC62 cells after 72 hrs by Celltiter-Glo luminescent cell viability assay; type: functional, cell-based; settings: UACC-62, 72 h
[15] = Antibacterial activity against carbapenem-resistant Klebsiella pneumoniae K6 ATCC 700603 by two fold serial dilution method; type: functional, Klebsiella pneumoniae 700603
RL = assay: Antiproliferative activity against human RL cells after 72 hrs by Celltiter-Glo luminescent cell viability assay; type: functional, cell-based
[16] = Antiproliferative activity against human COLO205 cells after 72 hrs by Celltiter-Glo luminescent cell viability assay; type: functional, cell-based; settings: COLO 205, 72 h
MCF7 = assay: Antiproliferative activity against human MCF7 cells after 72 hrs by Celltiter-Glo luminescent cell viability assay; type: functional, cell-based; settings: MCF7, 72 h
Enterococcus faecalis = assay: Antibacterial activity against Enterococcus faecalis Portland ATCC 29212 by two fold serial dilution method; type: functional; settings: ATCC 29212 Portland

| SMILES | MIC [1] [µM] | MIC (Pseudomonas aeruginosa) [µM] | MIC (Klebsiella aerogenes) [µM] | MIC (Streptococcus pneumoniae) [µM] | MIC [3] [µM] | MIC [6] [µM] | MIC (Staphylococcus aureus [7]) [µM] | MIC [8] [µM] | MIC [9] [µM] | MIC (Staphylococcus aureus [11]) [µM] | MIC (Acinetobacter baumannii) [µM] | MIC (Neisseria gonorrhoeae) [µM] | MIC [12] [µM] | MIC [13] [µM] | MIC [15] [µM] | MIC (Enterococcus faecalis) [µM] | also measured |
| --- | --- | --- | --- | --- | --- | --- | --- | --- | --- | --- | --- | --- | --- | --- | --- | --- | --- |
| CC(=O)NCC(=O)N[C@@H](Cc1ccccc1)C(=O)NC1(C(=O)NCC(=O)NC2(C(=O)N[C@@H](CCCCN)C(=O)N[C@@H](CCCCN)C(=O)NC3(C(=O)NCC(=O)NC4(C(=O)N[C@@H](Cc5ccccc5)C(=O)NC5(C(=O)NCC(=O)NC6(C(=O)NCC(=O)N[C@@H](CCCCN)C(=O)N[C@@H](CCCCN)C(=O)NC7(C(=O)N[C@@H](CCCCN)C(=O)N[C@@H](CCCCN)C(=O)N[C@@H](CCCCN)C(=O)N[C@@H](CCCCN)C(N)=O)CCCCC7)CCCCC6)CCCCC5)CCCCC4)CCCCC3)CCCCC2)CCCCC1 (Ac-GF[Ac6c]G[Ac6c]KK[Ac6c]G[Ac6c]F[Ac6c]G[Ac6c]GKK[Ac6c]KKKK-NH2) | 2.46 (≈ 6.25 µg/mL) | 2.46 (≈ 6.25 µg/mL) | > 39 | 39.4 (≈ 100 µg/mL) | 2.46 (≈ 6.25 µg/mL) | > 39 | 39.4 (≈ 100 µg/mL) | 4.92 (≈ 12.5 µg/mL) | > 39 | 19.7 (≈ 50 µg/mL) | 2.46 (≈ 6.25 µg/mL) | 0.61 (≈ 1.55 µg/mL) | 2.46 (≈ 6.25 µg/mL) | 19.7 (≈ 50 µg/mL) | 19.7 (≈ 50 µg/mL) | 19.7 (≈ 50 µg/mL) | IC50 (CFPAC-1): > 7.5 µM; IC50 (A549): 7.2 µM; IC50 [2]: > 7.5 µM; IC50 (A498): 3 µM; IC50 [4]: > 7.5 µM; IC50 [5]: > 7.5 µM; IC50 [10]: 7.3 µM; IC50 (NCI-H69): 1.9 µM; IC50 [14]: 2.6 µM; IC50 (RL): 2 µM; IC50 [16]: 5.4 µM; IC50 (MCF7): 6.2 µM |
| CC(=O)NCC(=O)N[C@@H](Cc1ccccc1)C(=O)NC1(C(=O)NCC(=O)NC2(C(=O)NC(CN)C(=O)NC3(C(=O)NCC(=O)NC4(C(=O)N[C@@H](Cc5ccccc5)C(=O)NC5(C(=O)NCC(=O)NC6(C(=O)NCC(=O)NC(CN)C(=O)NC7(C(=O)NC(CN)C(=O)NC(CN)C(=O)NC(CN)C(=O)NC(CN)C(N)=O)CCCCC7)CCCCC6)CCCCC5)CCCCC4)CCCCC3)CCCCC2)CCCCC1 (stereo not given in full) (Ac-GF[Ac6c]G[Ac6c][ξDap][Ac6c]G[Ac6c]F[Ac6c]G[Ac6c]G[ξDap][Ac6c][ξDap][ξDap][ξDap][ξDap]-NH2) | 24.6 (≈ 50 µg/mL) | 3.08 (≈ 6.26 µg/mL) | 1.54 (≈ 3.13 µg/mL) | 24.6 (≈ 50 µg/mL) | 3.08 (≈ 6.26 µg/mL) | > 49 | 6.16 (≈ 12.5 µg/mL) | 24.6 (≈ 50 µg/mL) | > 49 | 6.16 (≈ 12.5 µg/mL) | > 48 | 6.16 (≈ 12.5 µg/mL) | 6.16 (≈ 12.5 µg/mL) | 49.2 (≈ 99.9 µg/mL) | 3.08 (≈ 6.26 µg/mL) | 3.08 (≈ 6.26 µg/mL) |  |
| C[C@H]1c2cccc(O)c2C(=O)C2=C(O)[C@]3(O)C(=O)C(C(N)=O)=C(O)[C@@H](N(C)C)[C@@H]3[C@@H](O)[C@@H]21 [DOXYCYCLINE] |  |  |  |  |  | 1.1 (≈ 0.489 µg/mL) |  |  |  |  |  |  | 0.87 (≈ 0.387 µg/mL) | 1.1 (≈ 0.489 µg/mL) |  |  |  |
| CN[C@@H]1[C@H](O[C@H]2[C@H](O[C@H]3[C@H](O)[C@@H](O)[C@H](N=C(N)N)[C@@H](O)[C@@H]3N=C(N)N)O[C@@H](C)[C@]2(O)C=O)O[C@@H](CO)[C@H](O)[C@H]1O [STREPTOMYCIN] |  |  |  |  |  |  |  | 3.4 (≈ 1.98 µg/mL) |  |  |  |  |  |  |  |  |  |
| CN(C)[C@@H]1C(O)=C(C(N)=O)C(=O)[C@@]2(O)C(O)=C3C(=O)c4c(O)cccc4[C@@](C)(O)[C@H]3C[C@@H]12 [TETRACYCLINE] |  |  |  |  |  |  |  |  | 4.5 (≈ 2 µg/mL) |  |  | 2.25 (≈ 1 µg/mL) |  |  |  |  |  |
